From publication PMC3605428, “A Readily Applicable Strategy to Convert Peptides to Peptoid-based Therapeutics” (PLoS ONE, 2013)
Non-standard residues stand in square brackets, D forms with d. No end group written: not given here. *: point of attachment. FITC = O=C1OC2(c3ccc(O)cc3Oc3cc(O)ccc32)c2ccc(NC(=S)*)cc21; Sar = CNCC(=O)O

The substances below were run on 5-helix bundle (5HB) protein mimicking hRSV fusion protein F (assay: 5HB-based competitive fluorescence polarization (FP) binding assay). Settings: 200 µM peptide; inhibition of Fl-C35 tracer (5 nM) binding to 5HB (20 nM); FP buffer 20 mM PBS pH 7.4, 500 mM NaCl, 0.01% Tween-20, 0.05 mg/ml bovine gamma globulin; 1 h + 30 min at room temperature; ex 485/em 530 nm.
Set-up: species or system human respiratory syncytial virus (hRSV)
Description: Competitive FP binding assays of the C20 derivatives were carried out as previously described. Briefly, a 5-helix bundle (5HB) protein was designed to mimic a post-fusion structure of fusion protein F (6-helix bundle) and provide a specific binding site for screening potential human respiratory syncytial virus (hRSV) entry inhibitors. Using a 5HB protein as a target protein and a fluorescently labeled 35 amino acid-long peptide (Fl-C35, sequence shown in Table S1) as a tracer, we performed a competitive FP assay to evaluated the binding affinity of each C20 analogue prepared in this study. In each well of a black 96-well plate (Corning Inc. Lowell, MA, USA), 20 nM of the 5HB with increasing concentrations of each peptomer in FP buffer (20 mM PBS at pH 7.4, 500 mM NaCl, 0.01% (v/v) Tween-20, and 0.05 mg/ml bovine gamma globulin) in a final volume of 185 µL was incubated for 1h at room temperature. Fl-C35 was then added to a final concentration of 5 nM followed by 30 min incubation at room temperature. The FP responses were monitored using a Synergy4 plate reader (Biotek, Winooski, VT, USA) with an excitation wavelength of 485 nm and an emission wavelength of 530 nm. The percentage of inhibition (% Inhibition) was calculated from the equation: % inhibition = 100×[1-(mP-mPf)/(mPb-mPf)]. Unbound Fl-C35 (mPf), bound Fl-C35 (mPb) and the bound inhibitor to the 5HB (mP) are used accordingly.
Sample preparation for FP measurements.

Substance | % Inhibition at 200 µM [%]
ASQVNEKINQSLAFIRKSDE [Peptide A1, alanine-substituted C20 peptide] | 15.45
IAQVNEKINQSLAFIRKSDE [Peptide A2, alanine-substituted C20 peptide] | 23.63
IPQVNEKINQSLAFIRKSDE [Peptide P2, proline-substituted C20 peptide] | 23.15
ISAVNEKINQSLAFIRKSDE [Peptide A3, alanine-substituted C20 peptide] | 27.27
ISPVNEKINQSLAFIRKSDE [Peptide P3, proline-substituted C20 peptide] | 14.81
ISQANEKINQSLAFIRKSDE [Peptide A4, alanine-substituted C20 peptide] | 40.00
ISQPNEKINQSLAFIRKSDE [Peptide P4, proline-substituted C20 peptide] | 12.96
ISQVAEKINQSLAFIRKSDE [Peptide A5, alanine-substituted C20 peptide] | 25.90
ISQVNAKINQSLAFIRKSDE [Peptide A6, alanine-substituted C20 peptide] | 89.09
ISQVNEAINQSLAFIRKSDE [Peptide A7, alanine-substituted C20 peptide] | 100.00
ISQVNEKANQSLAFIRKSDE [Peptide A8, alanine-substituted C20 peptide] | 13.63
ISQVNEKIAQSLAFIRKSDE [Peptide A9, alanine-substituted C20 peptide] | 30.90
ISQVNEKINASLAFIRKSDE [Peptide A10, alanine-substituted C20 peptide] | 11.36
ISQVNEKINPSLAFIRKSDE [Peptide P10, proline-substituted C20 peptide] | 9.26
ISQVNEKINQALAFIRKSDE [Peptide A11, alanine-substituted C20 peptide] | 33.18
ISQVNEKINQPLAFIRKSDE [Peptide P11, proline-substituted C20 peptide] | 9.26
ISQVNEKINQSAAFIRKSDE [Peptide A12, alanine-substituted C20 peptide] | 43.63
ISQVNEKINQSLAAIRKSDE [Peptide A14, alanine-substituted C20 peptide] | 25.00
ISQVNEKINQSLAFARKSDE [Peptide A15, alanine-substituted C20 peptide] | 21.36
ISQVNEKINQSLAFIAKSDE [Peptide A16, alanine-substituted C20 peptide] | 53.63
ISQVNEKINQSLAFIPKSDE [Peptide P16, proline-substituted C20 peptide] | 4.63

Substance | % Inhibition at 200 µM [%]
ISQVNEKINQSLAFIRASDE [Peptide A17, alanine-substituted C20 peptide] | 100.00
ISQVNEKINQSLAFIRKADE [Peptide A18, alanine-substituted C20 peptide] | 36.81
ISQVNEKINQSLAFIRKPDE [Peptide P18, proline-substituted C20 peptide] | 0.93
ISQVNEKINQSLAFIRKSAE [Peptide A19, alanine-substituted C20 peptide] | 31.81
ISQVNEKINQSLAFIRKSDA [Peptide A20, alanine-substituted C20 peptide] | 29.09
ISQVNEKINQSLAFIRKSDE [Peptide A13, alanine scan entry for position 13] | 100.00
ISQVNEKINQSLAFIRKSDE [Peptide C20, 20 amino acid-long peptide derived from the 6th helix of hRSV fusion protein F] | 100
ISQVNEKINQSLAFIRKSDP [Peptide P20, proline-substituted C20 peptide] | 31.48
ISQVNEKINQSLAFIRKSD[Sar] [Sar20, sarcosine-substituted C20 peptide] | 100.00
ISQVNEKINQSLAFIRKSPE [Peptide P19, proline-substituted C20 peptide] | 84.26
ISQVNEKINQSLAFIRKS[Sar]E [Sar19, sarcosine-substituted C20 peptide] | 59.26
ISQVNEKINQSLAFIRK[Sar]DE [Sar18, sarcosine-substituted C20 peptide] | 21.30
ISQVNEKINQSLAFIRPSDE [Peptide P17, proline-substituted C20 peptide] | 6.48
ISQVNEKINQSLAFIR[Sar]SDE [Sar17, sarcosine-substituted C20 peptide] | 84.26
ISQVNEKINQSLAFI[Sar]KSDE [Sar16, sarcosine-substituted C20 peptide] | 0.00
ISQVNEKINQSLAFPRKSDE [Peptide P15, proline-substituted C20 peptide] | 4.63
ISQVNEKINQSLAF[Sar]RKSDE [Sar15, sarcosine-substituted C20 peptide] | 30.56
ISQVNEKINQSLAPIRKSDE [Peptide P14, proline-substituted C20 peptide] | 13.89
ISQVNEKINQSLA[Sar]IRKSDE [Sar14, sarcosine-substituted C20 peptide] | 4.63
ISQVNEKINQSLPFIRKSDE [Peptide P13, proline-substituted C20 peptide] | 10.19
ISQVNEKINQSL[Sar]FIRKSDE [Sar13, sarcosine-substituted C20 peptide] | 4.63

Substance | % Inhibition at 200 µM [%]
ISQVNEKINQSPAFIRKSDE [Peptide P12, proline-substituted C20 peptide] | 22.22
ISQVNEKINQS[Sar]AFIRKSDE [Sar12, sarcosine-substituted C20 peptide] | 7.41
ISQVNEKINQ[Sar]LAFIRKSDE [Sar11, sarcosine-substituted C20 peptide] | 13.89
ISQVNEKIN[Sar]SLAFIRKSDE [Sar10, sarcosine-substituted C20 peptide] | 21.30
ISQVNEKIPQSLAFIRKSDE [Peptide P9, proline-substituted C20 peptide] | 33.33
ISQVNEKI[Sar]QSLAFIRKSDE [Sar9, sarcosine-substituted C20 peptide] | 13.89
ISQVNEKPNQSLAFIRKSDE [Peptide P8, proline-substituted C20 peptide] | 11.11
ISQVNEK[Sar]NQSLAFIRKSDE [Sar8, sarcosine-substituted C20 peptide] | 26.85
ISQVNE[Sar]INQSLAFIRKSDE [Sar7, sarcosine-substituted C20 peptide] | 100.00
ISQVNPKINQSLAFIRKSDE [Peptide P6, proline-substituted C20 peptide] | 26.85
ISQVN[Sar]KINQSLAFIRKSDE [Sar6, sarcosine-substituted C20 peptide] | 108.33
ISQVPEKINQSLAFIRKSDE [Peptide P5, proline-substituted C20 peptide] | 34.26
ISQV[Sar]EKINQSLAFIRKSDE [Sar5, sarcosine-substituted C20 peptide] | 23.15
ISQ[Sar]NEKINQSLAFIRKSDE [Sar4, sarcosine-substituted C20 peptide] | 1.85
IS[Sar]VNEKINQSLAFIRKSDE [Sar3, sarcosine-substituted C20 peptide] | 11.11
I[Sar]QVNEKINQSLAFIRKSDE [Sar2, sarcosine-substituted C20 peptide] | 22.22
PSQVNEKINQSLAFIRKSDE [Peptide P1, proline-substituted C20 peptide] | 26.85
[Sar]SQVNEKINQSLAFIRKSDE [Sar1, sarcosine-substituted C20 peptide] | 15.74
{FITC}-YDPLVFPSDEFDASISQVNEKINQSLAFIRKSDEL [Fl-C35, fluorescently labeled 35 amino acid-long peptide used as tracer, reference compound] | 100
